Results taken from patent publication US20260042762A1 (Kymera Therapeutics, Inc., priority 2018, published 2026).

Target: T1, MerTK (Homo sapiens, UniProt Q12866)
T1 construct: endogenous in cells; host or cells: Jurkat cells
T1 sequence (Q12866 21-999): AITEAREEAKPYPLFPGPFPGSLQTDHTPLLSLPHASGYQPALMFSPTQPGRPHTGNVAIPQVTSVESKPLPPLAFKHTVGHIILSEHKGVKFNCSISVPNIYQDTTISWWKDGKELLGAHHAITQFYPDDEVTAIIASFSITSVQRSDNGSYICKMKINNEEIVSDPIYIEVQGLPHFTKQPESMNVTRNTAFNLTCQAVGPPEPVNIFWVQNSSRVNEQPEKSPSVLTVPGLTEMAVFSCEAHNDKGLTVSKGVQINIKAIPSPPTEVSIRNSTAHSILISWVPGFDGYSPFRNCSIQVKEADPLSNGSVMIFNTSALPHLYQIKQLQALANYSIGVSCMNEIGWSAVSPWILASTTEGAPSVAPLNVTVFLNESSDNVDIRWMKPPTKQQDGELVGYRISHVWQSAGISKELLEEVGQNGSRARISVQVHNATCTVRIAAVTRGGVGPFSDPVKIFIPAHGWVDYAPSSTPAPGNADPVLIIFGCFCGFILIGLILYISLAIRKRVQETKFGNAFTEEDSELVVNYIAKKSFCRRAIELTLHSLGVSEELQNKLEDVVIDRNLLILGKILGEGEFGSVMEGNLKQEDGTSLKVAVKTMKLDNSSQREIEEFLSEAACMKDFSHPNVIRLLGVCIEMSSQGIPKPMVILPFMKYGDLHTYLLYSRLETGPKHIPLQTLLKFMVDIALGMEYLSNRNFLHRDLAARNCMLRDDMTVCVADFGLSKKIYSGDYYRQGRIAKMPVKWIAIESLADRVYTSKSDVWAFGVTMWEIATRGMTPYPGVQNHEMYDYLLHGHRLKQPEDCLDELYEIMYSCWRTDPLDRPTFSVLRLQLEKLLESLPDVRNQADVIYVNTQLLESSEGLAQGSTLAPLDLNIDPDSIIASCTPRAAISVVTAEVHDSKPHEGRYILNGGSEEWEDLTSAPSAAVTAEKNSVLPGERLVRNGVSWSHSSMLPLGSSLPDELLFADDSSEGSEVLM
Experiment: MerTk degradation in Jurkat cells (Western blot)
Format: cell-based
Details: Jurkat, 4 h, 0.001-1 μM, 4 hour-incubation at 37° C., read-out: Jurkat Max % MerTK Degradation
Procedure: Compounds were reconstituted in DMSO to make 10 mM stock solutions. […] Cells were seeded into 6-well plates with about 5×10^6 cells per well. 2 μL of diluted compounds were added to cells to the final concentration of 0.001-1 μM. After a 4 hour-incubation at 37° C., cells were collected into 2 mL Eppendorf tubes and centrifuged at 1,000 rpm for 5 min. The cell pellets were washed with DPBS (1×) once and resuspended in 60 μL RIPA lysis buffer with Halt Protease and Phophatase Inhibitor Cocktail. The cells were lysed on ice for 10 min, then centrifuged at 14,000 rpm for 10 min at 4° C. and the supernatants were collected for western blots.
The protein concentration of cell lysates was quantified with Pierce™ BCA Protein Assay Kit. […] BCA working reagents were prepared by mixing BCA reagent A with reagent B in 50: 1 ratio. 200 μL of the BCA working reagents were added to 25 μL of BCA standard or cell lysates in microplate, and mixed thoroughly on a plate shaker for 30 seconds. After incubation at 37° C. for 30 min, the absorbance of samples at 562 nm were measured with EnVision Plate Reader.
Protein lysates were prepared in NuPAGE™ LDS sample buffer and NuPAGE™ sample reducing agent, and incubated at 95° C. for 5 min. […] The proteins were transferred to low fluorescence PVDF membranes using the Trans-Blot Turbo Transfer System. Membranes were then blocked in Odyssey blocking buffer at RT for 1 h followed by primary incubation at 4° C. overnight. The primary antibodies were MerTK rabbit monoclonal antibody and actin mouse monoclonal antibody. Membranes were washed three times with TBST (1×), and then incubated with IR Dye 800 CW Goat anti-rabbit and IR Dye 700 CW Goat anti-mouse secondary antibodies in 1:10,000 dilution at RT for 1 h. The Western blot images were obtained using Odyssey Imaging System.

Row | Structure (SMILES) | Dmax [%]
1 | Cn1c(=O)n([C@H]2CCC(=O)NC2=O)c2ccc(CCCOCCOC3CCN(C[C@H]4CC[C@H](c5cn([C@H]6CC[C@H](O)CC6)c6nc(NCCC(F)(F)F)ncc65)CC4)CC3)cc21 [I-163] | > 50
2 | Cc1ncsc1-c1ccc(CNC(=O)[C@@H]2C[C@@H](O)CN2C(=O)[C@@H](NC(=O)COCCOCCOCCOCCn2ccc3c(Nc4nc(N[C@@H]5CCCC[C@@H]5N)cc5nc[nH]c(=O)c45)cccc32)C(C)(C)C)cc1 [I-230] | < 20
3 | CCCCNc1ncc2c(n1)n([C@H]1CC[C@H](O)CC1)cc2[C@H]1CC[C@@H](CN2CCN(CCOCCOCCOCCOCCCc3ccc4c(c3)n(C)c(=O)n4[C@H]3CCC(=O)NC3=O)CC2)CC1 [I-89, 3-[3-methyl-2-oxo-5-[1-(4-[[(1s,4s)-4-[2-(butylamino)-7-[trans-4-hydroxycyclohexy1]-7H-pyrrolo[2,3-d]pyrimidin-5-yl]cyclohexyl]methyl]piperazin-1-yl)-3,6,9,12-tetraoxapentadecan-15-yl]-2,3-dihydro-1H-1,3-benzodiazol-1-yl]piperidine-2,6-dione; di(formic acid)] | > 50
4 | Cn1c(=O)n([C@H]2CCC(=O)NC2=O)c2cccc(CN3CCC(CC4CCN(Cc5ccc(-c6cn([C@H]7CC[C@H](O)CC7)c7nc(NCCC(F)(F)F)ncc67)cc5)CC4)CC3)c21 [I-159, 3-(3-methyl-2-oxo-4-[[4-([1-[(4-[7-[trans-4-hydroxycyclohexy1]-2-[(3,3,3-trifluoropropyl)amino]pyrrolo[2,3-d]pyrimidin-5-y1]phenyl)methyl]piperidin-4-y1]methyl)piperidin-1-yl]methyl]-1,3-benzodiazol-1-yl)piperidine-2,6-dione] | > 50
5 | CCCCNc1ncc2c(-c3ccc(S(=O)(=O)N4CCN(C(=O)COCCOCCOCCOCCNc5cccc6c5C(=O)N(C5CCC(=O)NC5=O)C6=O)CC4)cc3)nn([C@H]3CC[C@H](O)CC3)c2n1 (stereo partly drawn) [I-32, 4-((14-(4-((4-(6-(butylamino)-1-(trans-4-hydroxycyclohexyl)-1H-pyrazolo[3,4-d]pyrimidin-3-yl)phenyl)sulfonyl)piperazin-1-yl)-14-oxo-3,6,9,12-tetraoxatetradecyl)amino)-2-(2,6-dioxopiperidin-3-yl)isoindoline-1,3-dione] | > 50
6 | CN1CCN(Cc2ccc(-c3ccc(CO[C@H]4CCC[C@@H]4NC(=O)c4cc(-c5cnn(CCCc6cccc7c6n(C)c(=O)n7C6CCC(=O)NC6=O)c5)cnc4N)cc3)cc2)CC1 (stereo partly drawn) [I-183, 2-Amino-5-(1-[3-[1-(2,6-dioxopiperidin-3-yl)-3-methyl-2-oxo-1,3-benzodiazol-4-yl]propyl]pyrazol-4-yl)-N-[(1S,2S)-2-([4-[(4-methylpiperazin-1-yl)methyl]-[1,1-biphenyl]-4-yl]methoxy)cyclopentyl]pyridine-3-carboxamide] | < 20
7 | CC(O)c1ccc2c(c1)n(C)c(=O)n2C1CCC(=O)NC1=O (stereo not drawn) [I-236] | > 50
8 | Cn1c(=O)n([C@H]2CCC(=O)NC2=O)c2ccc(CCOC3CCN(C4CCN(Cc5ccc(-c6cn([C@H]7CC[C@H](O)CC7)c7nc(NCCC(F)(F)F)ncc67)cc5)CC4)CC3)cc21 [I-155, 3-[3-methyl-2-oxo-5-[2-([1-[(4-[7-[trans-4-hydroxycyclohexy1]-2-[(3,3,3-trifluoropropyl)amino]pyrrolo[2,3-d]pyrimidin-5-yl]phenyl)methyl]-[1,4-bipiperidin]-4-yl]oxy)ethyl]-1,3-benzodiazol-1-yl]piperidine-2,6-dione; formic acid] | > 50

More lines, now with the values ahead:

Row | Dmax [%] | Structure (SMILES)
9 | < 20 | CCCCNc1ncc2c(-c3ccc(S(=O)(=O)N4CCN(CCOCCOCCOCCOCCCc5ccc6c(c5)n(C)c(=O)n6[C@H]5CCC(=O)N(C)C5=O)CC4)cc3)cn([C@H]3CC[C@H](O)CC3)c2n1 [I-60, 3-[5-[1-(4-[4-[2-(butylamino)-7-[trans-4-hydroxycyclohexyl]-7H-pyrrolo[2,3-d]pyrimidin-5-yl]benzenesulfonyl]piperazin-1-yl)-3,6,9,12-tetraoxapentadecan-15-y1]-3-methyl-2-oxo-2,3-dihydro-1H-1,3-benzodiazol-1-yl]-1-methylpiperidine-2,6-dione; formic acid]
10 | > 50 | C[C@H]1CN(Cc2ccc(-c3cn([C@H]4CC[C@H](O)CC4)c4nc(NCCC(F)(F)F)ncc34)cc2)CCN1CCCOCCCc1ccc2c(c1)n(C)c(=O)n2C1CCC(=O)NC1=O (stereo partly drawn) [I-106, 3-[3-methyl-5-(3-[3-[(2S)-2-methyl-4-[(4-[7-[trans-4-hydroxycyclohexy1]-2-[(3,3,3-trifluoropropyl)amino]-7H-pyrrolo[2,3-d]pyrimidin-5-yl]phenyl)methyl]piperazin-1-yl]propoxy]propyl)-2-oxo-2,3-dihydro-1H-1,3-benzodiazol-1-yl]piperidine-2,6-dione; formic acid]
11 | > 50 | Cn1c(=O)n([C@H]2CCC(=O)NC2=O)c2ccc(CCCC3CN(C4CCN(Cc5ccc(-c6cn([C@H]7CC[C@H](O)CC7)c7nc(NCCC(F)(F)F)ncc67)cc5)CC4)C3)cc21 [I-156, 3-[3-methyl-2-oxo-5-[3-(1-[1-[(4-[7-[trans-4-hydroxycyclohexy1]-2-[(3,3,3-trifluoropropyl)amino]pyrrolo[2,3-d]pyrimidin-5-y1]phenyl)methyl]piperidin-4-yl]azetidin-3-yl)propyl]-1,3-benzodiazol-1-yl]piperidine-2,6-dione; formic acid]
12 | > 50 | CCCCNc1ncc2c(-c3ccc(CN4CCN(CCOCCOCCOCCOCCNc5cccc6c5n(C)c(=O)n6C5CCC(=O)NC5=O)CC4)cc3)cn([C@H]3CC[C@H](O)CC3)c2n1 (stereo partly drawn) [I-36, trans-3-(4-[15-[4-([4-[2-(butylamino)-7-[4-hydroxycyclohexyl]-7H-pyrrolo[2,3-d]pyrimidin-5-yl]phenyl]methyl)piperazin-1-yl]-4,7,10,13-tetraoxa-1-azapentadecan-1-yl]-3-methyl-2-oxo-2,3-dihydro-1H-1,3-benzodiazol-1-yl)piperidine-2,6-dione]
13 | > 50 | CCCCNc1ncc2c(-c3ccc(C(C)N4CCN(CCCOCCCc5ccc6c(c5)n(C)c(=O)n6C5CCC(=O)NC5=O)CC4)cc3)cn([C@H]3CC[C@H](O)CC3)c2n1 (stereo partly drawn) [I-75, 3-[5-(3-[3-[4-(1-[4-[2-(butylamino)-7-[trans-4-hydroxycyclohexy1]-7H-pyrrolo[2,3-d]pyrimidin-5-yl]phenyl]ethyl)piperazin-1-yl]propoxy]propyl)-3-methyl-2-oxo-2,3-dihydro-1H-1,3-benzodiazol-1-yl]piperidine-2,6-dione; formic acid]
14 | > 50 | Cn1c(=O)n(C2CCC(=O)NC2=O)c2ccc(CCN3CCC(OCCN4CCN(Cc5ccc(-c6cn([C@H]7CC[C@H](O)CC7)c7nc(NCCC(F)(F)F)ncc67)cc5)CC4)C3)cc21 (stereo partly drawn) [I-124, 3-(3-methyl-2-oxo-5-[2-[3-(2-[4-[(4-[7-[trans-4-hydroxycyclohexyl]-2-[(3,3,3-trifluoropropyl)amino]-7H-pyrrolo[2,3-d]pyrimidin-5-yl]phenyl)methyl]piperazin-1-yl]ethoxy)pyrrolidin-1-yl]ethyl]-2,3-dihydro-1H-1,3-benzodiazol-1-y1)piperidine-2,6-dione; tris(formic acid)]
15 | > 50 | Cn1c(=O)n(C2CCC(=O)NC2=O)c2ccc(CCCN3CCC(N4CCN(Cc5ccc(-c6cn([C@H]7CC[C@H](O)CC7)c7nc(NCCC(F)(F)F)ncc67)cc5)CC4)C3)cc21 (stereo partly drawn) [I-122, 3-[3-methyl-2-oxo-5-[3-(3-[4-[(4-[7-[trans-4-hydroxycyclohexy1]-2-[(3,3,3-trifluoropropyl)amino]-7H-pyrrolo[2,3-d]pyrimidin-5-yl]phenyl)methyl]piperazin-1-y1]pyrrolidin-1-y1)propyl]-2,3-dihydro-1H-1,3-benzodiazol-1-yl]piperidine-2,6-dione; formic acid]
